Results taken from ChEMBL document CHEMBL1133707, “Heteroarylmethoxyphenylalkoxyiminoalkylcarboxylic acids as leukotriene biosynthesis inhibitors” (J Med Chem, 2000).
pIC50: −log10 of the molar value.

What was measured:
[1] = target: T1, Polyunsaturated fatty acid 5-lipoxygenase (Homo sapiens) (UniProt P09917); experiment: Inhibition of Calcium Ionophore (A-23187)-stimulated LTB4 formation in Human Neutrophil assay at 100 uM.; assay type: functional
T1 sequence (whole entry): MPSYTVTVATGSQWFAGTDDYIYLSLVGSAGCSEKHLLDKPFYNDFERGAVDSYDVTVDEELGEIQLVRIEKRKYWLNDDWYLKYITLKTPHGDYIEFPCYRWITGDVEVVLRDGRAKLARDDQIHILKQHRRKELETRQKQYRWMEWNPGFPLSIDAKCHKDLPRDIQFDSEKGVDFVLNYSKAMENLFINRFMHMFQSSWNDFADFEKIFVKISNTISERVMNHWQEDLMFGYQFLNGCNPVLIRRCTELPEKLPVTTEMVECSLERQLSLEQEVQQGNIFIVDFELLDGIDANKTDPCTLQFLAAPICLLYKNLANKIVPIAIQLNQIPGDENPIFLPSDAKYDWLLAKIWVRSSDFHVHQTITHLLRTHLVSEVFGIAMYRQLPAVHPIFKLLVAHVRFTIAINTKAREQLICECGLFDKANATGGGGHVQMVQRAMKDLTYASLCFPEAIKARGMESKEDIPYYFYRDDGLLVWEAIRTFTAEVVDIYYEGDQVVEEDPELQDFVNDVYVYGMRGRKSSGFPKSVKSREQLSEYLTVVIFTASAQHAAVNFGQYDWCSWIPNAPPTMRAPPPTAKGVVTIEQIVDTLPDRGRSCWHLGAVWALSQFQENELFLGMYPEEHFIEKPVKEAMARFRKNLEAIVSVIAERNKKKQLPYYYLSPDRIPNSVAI

Rattus norvegicus [2] = experiment: Percent inhibition was determined for in vivo ionophore induced rat pleurisy at a dose of 3 mg/kg; assay type: functional
Rattus norvegicus [3] = experiment: In vivo inhibition of ionophore induced rat pleurisy.; assay type: functional
Homo sapiens = organism: Homo sapiens; experiment: Inhibition of Calcium Ionophore (A-23187)-stimulated LTB4 formation in Human whole blood assay.; assay type: functional
Rattus norvegicus [4] = experiment: Effective dose was determined in in vivo which inhibits 50% of the mean value in rat anaphylaxis.; assay type: functional
[5] = half life was determined in plasma of dog; assay type: ADME, organism-based, Canis lupus familiaris
[6] = half life was determined in plasma of monkey; assay type: ADME; details: simiiformes

Structure (SMILES) | I (Rattus norvegicus [2]) [%] | also measured
O=C(O)/C=N/OC(c1ccc(-c2ccc(OCc3ccc4ccccc4n3)cc2)cc1)C1CCCCC1 (stereo not given) | 10 | inhibition [1]: 55%
C/C(=N\OC(c1ccc(OCc2ccc3ccccc3n2)cc1)C1CCCCCC1)C(=O)O (stereo not given) | – | ED50 (Rattus norvegicus [3]): 0.7 mg/kg
O=C(O)/C(=N/OC(c1ccc(OCc2ccc3ccccc3n2)cc1)C1CCCCC1)c1ccccc1 (stereo not given) | 41 | –
CCCCCCCC(O/N=C/C(=O)O)c1ccc(OCc2ccc3ccccc3n2)cc1 (stereo not given) | 0 | inhibition [1]: 100%
O=C(O)/C=N/OC(c1ccc(OCc2nc(-c3ccccc3)cs2)cc1)C1CCCCC1 (stereo not given) | 0 | –
CCCCC(O/N=C(\C)C(=O)O)c1ccc(OCc2ccc3ccccc3n2)cc1 (stereo not given) | – | inhibition [1]: 45%
C/C(CCCC(=O)O)=N\OC(c1ccc(OCc2ccc3ccccc3n2)cc1)C1CCCCC1 (stereo not given) | – | ED50 (Rattus norvegicus [3]): 3 mg/kg
C/C(=N\OC(c1ccc(OCc2nc3ccccc3s2)cc1Cl)C1CCCCC1)C(=O)O (stereo not given) | – | ED50 (Rattus norvegicus [3]): 2.6 mg/kg
C/C(=N/OC(CCc1ccc(OCc2ccc3ccccc3n2)cc1)C1CCCCC1)C(=O)O (stereo not given) | 6 | inhibition [1]: 51%
C/C(=N\OC(c1ccc(OCc2ccc3ccccc3n2)c(C)c1)C1CCCCC1)C(=O)O (stereo not given) | 58 | –
C/C(=N\OC(c1ccc(OCc2nc(-c3ccc(C(C)C)cc3)cs2)cc1)C1CCCCC1)C(=O)O (stereo not given) | 17 | inhibition [1]: 57%
O=C(O)[C@@H](c1ccc(OCc2ccc3ccccc3n2)cc1)C1CCCC1 [VELIFLAPON] | – | ED50 (Rattus norvegicus [3]): 4 mg/kg
C/C(=N\OC(c1ccc(OCc2ccc3cc(F)ccc3n2)cc1)C1CCCCC1)C(=O)O (stereo not given) | – | ED50 (Rattus norvegicus [3]): 0.4 mg/kg
O=C(O)/C=N/OC(c1ccc(OCc2ccc3ccccc3n2)c(F)c1)C1CCCCC1 (stereo not given) | – | inhibition [1]: 97%
O=C(O)/C=N/OC(c1ccc(OCc2ccccn2)cc1)C1CCCCC1 (stereo not given) | 3 | –
C/C(=N\OC(c1cc2ccc(OCc3ccc4ccccc4n3)cc2s1)C1CCCCC1)C(=O)O (stereo not given) | 80 | –
C/C(=N\OC(c1ccc(OCc2ccc3ccccc3n2)cc1)C1CCCCC1)C(=O)O (stereo not given) [listing 1 of 2 here] | – | inhibition [1]: 95%
C/C(=N\OC(c1ccc(OCc2nc3cc(F)ccc3s2)cc1Cl)C1CCCCC1)C(=O)O (stereo not given) | 22 | –
COc1cc(OCc2ccc3ccccc3n2)ccc1C(O/N=C/C(=O)O)C1CCCCC1 (stereo not given) | 41 | –
CC(C)c1ccc(-c2csc(COc3ccc(C(O/N=C/C(=O)O)C4CCCCC4)cc3)n2)cc1 (stereo not given) | 15 | –
C/C(=N\OC(c1ccc(OCc2nc(-c3ccccc3)cs2)cc1)C1CCCCC1)C(=O)O (stereo not given) | 15 | –
O=C(O)/C=N/OC(c1cc2cc(OCc3ccc4ccccc4n3)ccc2o1)C1CCCCC1 (stereo not given) | 31 | –
CC(C)(C)Sc1c(CC(C)(C)C(=O)[O-])n(Cc2ccc(Cl)cc2)c2ccc(OCc3ccc4ccccc4n3)cc12.[Na+] [QUIFLAPON SODIUM] | – | ED50 (Rattus norvegicus [3]): 1.6 mg/kg
C/C(=N\OC(c1ccc(OCc2ccc3ccccc3n2)cc1)C1CCCC1)C(=O)O (stereo not given) | 61 | –
O=C(O)/C=N/OC(c1ccc(OCc2ccc3ccccc3n2)cc1)C1CCCCC1 (stereo not given) | – | ED50 (Rattus norvegicus [3]): 2.5 mg/kg
O=C(O)/C=N/OC(c1ccc(OCc2nc3cc(F)ccc3s2)cc1Cl)C1CCCCC1 (stereo not given) | – | ED50 (Rattus norvegicus [3]): 1.7 mg/kg

Structure (SMILES) | I (Rattus norvegicus [2]) [%] | also measured
C/C(=N\OC(c1ccc(OCc2nc3ccccc3s2)cc1)C1CCCCC1)C(=O)O (stereo not given) | 85 | –
O=C(O)CSC(CCCc1ccc(Cl)cc1)c1ccc(OCc2ccc3ccccc3n2)cc1 (stereo not given) | – | ED50 (Rattus norvegicus [3]): 1.6 mg/kg
O=C(O)/C(=N\OC(c1ccc(OCc2ccc3ccccc3n2)cc1)C1CCCCC1)c1cccs1 (stereo not given) | 60 | –
C/C(CCC(=O)O)=N\OC(c1ccc(OCc2ccc3ccccc3n2)cc1)C1CCCCC1 (stereo not given) | – | ED50 (Rattus norvegicus [3]): 1 mg/kg
CCCCCCCC(O/N=C(\C)C(=O)O)c1ccc(OCc2ccc3ccccc3n2)cc1 (stereo not given) | – | inhibition [1]: 96%
C/C(CCC(=O)O)=N/OC(c1ccc(OCc2ccc3ccccc3n2)cc1)C1CCCCC1 (stereo not given) | 62 | –
C/C(=N\OC(c1ccc(OCc2cc(-c3ccccc3)on2)cc1)C1CCCCC1)C(=O)O (stereo not given) | 0 | inhibition [1]: 61%
O=C(O)/C=N/OC(c1ccc(OCc2ccc3cc(F)ccc3n2)cc1)C1CCCCC1 (stereo not given) | 39 | –
O=C(O)/C=N/OC(c1ccc(OCc2cnc3ccccc3n2)cc1)C1CCCCC1 (stereo not given) | 28 | –
CC(/C=C/C(=O)O)=N\OC(c1ccc(OCc2ccc3ccccc3n2)cc1)C1CCCCC1 (stereo not given) | – | ED50 (Rattus norvegicus [3]): 2 mg/kg
CCCCCCCCC(O/N=C(\C)C(=O)O)c1ccc(OCc2ccc3ccccc3n2)cc1 (stereo not given) | 27 | inhibition [1]: 92%
C/C(=N\OC(c1ccc(OCc2ccc3ccccc3n2)cc1)c1cccnc1)C(=O)O (stereo not given) | – | inhibition [1]: 20%
COc1cc(OCc2ccc3ccccc3n2)ccc1C(O/N=C(\C)C(=O)O)C1CCCCC1 (stereo not given) | 32 | inhibition [1]: 98%
C/C(=N\OC(CCCc1ccc(F)cc1)c1ccc(OCc2ccc3ccccc3n2)cc1)C(=O)O (stereo not given) | – | ED50 (Rattus norvegicus [3]): 2.6 mg/kg
Cc1cc(C(O/N=C/C(=O)O)C2CCCCC2)ccc1OCc1ccc2ccccc2n1 (stereo not given) | 15 | –
C/C(=N\OC(c1ccc(OCc2ccc3ccccc3n2)cc1)C1CCCCC1)C(=O)O (stereo not given) [listing 2 of 2 here] | – | ED50 (Rattus norvegicus [3]): 0.5 mg/kg; pIC50 (Homo sapiens): 5.74; ED50 (Rattus norvegicus [4]): 1.2 mg/kg; half-life [5]: 5.6 h; half-life [6]: 1.5 h
O=C(O)/C=N/OC(c1ccc(OCc2nc3cccnc3s2)cc1)C1CCCCC1 (stereo not given) | 47 | –
CCCCCCCCCCCCC(O/N=C/C(=O)O)c1ccc(OCc2ccc3ccccc3n2)cc1 (stereo not given) | – | inhibition [1]: 54%
O=C(O)/C(Cc1ccc(O)cc1)=N/OC(c1ccc(OCc2ccc3ccccc3n2)cc1)C1CCCCC1 (stereo not given) | 39 | –
C/C(=N\OCC(c1ccc(OCc2ccc3ccccc3n2)cc1)C1CCCCC1)C(=O)O (stereo not given) | 33 | –
COc1ccc(C(O/N=C(\C)C(=O)O)c2ccc(OCc3ccc4ccccc4n3)cc2)cc1 (stereo not given) | 20 | inhibition [1]: 58%
O=C(O)/C=N/OC(c1ccc(OCc2nc3ccccc3o2)cc1)C1CCCCC1 (stereo not given) | 14 | –
C/C(=N\OC(c1ccc(COc2ccc3ccccc3n2)cc1)C1CCCCC1)C(=O)O (stereo not given) | 0 | –
C/C(=N\OC(CC(C)(C)c1ccccc1)c1ccc(OCc2ccc3ccccc3n2)cc1)C(=O)O (stereo not given) | – | ED50 (Rattus norvegicus [3]): 2 mg/kg
CCCCC(CCCC)C(O/N=C(\C)C(=O)O)c1ccc(OCc2ccc3ccccc3n2)cc1 (stereo not given) | 40 | –
O=C(O)/C=N/OC(c1ccc(OCc2nc3cc(F)ccc3s2)cc1)C1CCCCC1 (stereo not given) | 0 | –

Structure (SMILES) | I (Rattus norvegicus [2]) [%] | also measured
O=C(O)/C=N/OC(c1ccc(OCc2nc3ccccc3s2)cc1Br)C1CCCCC1 (stereo not given) | – | ED50 (Rattus norvegicus [3]): 1 mg/kg
C/C(=N\OC(Cc1ccccc1)c1ccc(OCc2ccc3ccccc3n2)cc1)C(=O)O (stereo not given) | 36 | –
O=C(O)/C=N/OC(c1ccc(OCc2nc3ccccc3s2)cc1)C1CCCCC1 (stereo not given) | – | ED50 (Rattus norvegicus [3]): 3 mg/kg
O=C(O)/C=N/OC(c1ccc(OCc2nc3ccccc3s2)cc1Cl)C1CCCCC1 (stereo not given) | 84 | –
O=C(O)/C(CCc1ccccc1)=N/OC(c1ccc(OCc2ccc3ccccc3n2)cc1)C1CCCCC1 (stereo not given) | 34 | –
O=C(O)/C=N/OC(c1ccc(OCc2ccc3ccccc3n2)cc1)C1CCCC1 (stereo not given) | 27 | –
O=C(O)/C(=N/OC(c1ccc(OCc2ccc3ccccc3n2)cc1)C1CCCCC1)c1cccs1 (stereo not given) | 29 | –
O=C(O)c1ccc(/C=N/OC(c2ccc(OCc3ccc4ccccc4n3)cc2)C2CCCCC2)cc1 (stereo not given) | 41 | –
O=C(O)/C=N/OC(c1ccc(OCc2csc(-c3ccc(Cl)cc3)n2)cc1)C1CCCCC1 (stereo not given) | 30 | –
C/C(=N\OC(c1ccc(OCc2ccc3ccccc3n2)cc1)C1C2CC3CC(C2)CC1C3)C(=O)O (stereo not given) | – | ED50 (Rattus norvegicus [3]): 0.6 mg/kg
O=C(O)c1ccc(O)c(/C=N/OC(c2ccc(OCc3ccc4ccccc4n3)cc2)C2CCCCC2)c1 (stereo not given) | 35 | inhibition [1]: 95%
CCCCC(O/N=C/C(=O)O)c1ccc(OCc2ccc3ccccc3n2)cc1 (stereo not given) | 0 | –
C/C(CCCCCC(=O)O)=N\OC(c1ccc(OCc2ccc3ccccc3n2)cc1)C1CCCCC1 (stereo not given) | 5 | –
C/C(=N\OC(c1ccc(OCc2ccc3ccccc3n2)c(Cl)c1)C1CCCCC1)C(=O)O (stereo not given) | – | ED50 (Rattus norvegicus [3]): 1.2 mg/kg
C/C(=N\OC(c1ccc(OCc2ccc3ccccc3n2)cc1)c1cccs1)C(=O)O (stereo not given) | 6 | –
O=C(O)C1CCC(=NOC(c2ccc(OCc3ccc4ccccc4n3)cc2)C2CCCCC2)CC1 (stereo not given) | 9 | –
C/C(=N\OC(Cc1ccc(OCc2ccc3ccccc3n2)cc1)C1CCCCC1)C(=O)O (stereo not given) | 30 | –
O=C(O)/C=N/OC(c1nc(OCc2ccc3ccccc3n2)c(-c2ccccc2)s1)C1CCCCC1 (stereo not given) | – | inhibition [1]: 2%
Cc1nc(COc2ccc(C(O/N=C/C(=O)O)C3CCCCC3)cc2)cs1 (stereo not given) | 4 | –
CC(c1cc2ccccc2s1)N(O)C(N)=O (stereo not given) [ZILEUTON] | – | ED50 (Rattus norvegicus [3]): 6 mg/kg
CCCCC(CCCC)C(O/N=C/C(=O)O)c1ccc(OCc2ccc3ccccc3n2)cc1 (stereo not given) | 7 | –
C/C(=N\OC(c1ccc(OCc2cccc(Cl)n2)cc1)C1CCCCC1)C(=O)O (stereo not given) | – | inhibition [1]: 7%
C/C(=N\O[C@@H](c1ccc(OCc2ccc3ccccc3n2)cc1)C1CCCCC1)C(=O)O | 29 | Inhibition (Homo sapiens; Homo sapiens, Blood): 63%; half-life [5]: 4.5 h; half-life [6]: 3.8 h
O=C(O)/C=N/OC(c1ccc2cc(OCc3ccc4ccccc4n3)ccc2c1)C1CCCCC1 (stereo not given) | 24 | –
O=C(O)/C=N/OC(c1ccc(OCc2ccc3ccccc3n2)cc1)C1C2CC3CC(C2)CC1C3 (stereo not given) | – | ED50 (Rattus norvegicus [3]): 1.2 mg/kg
O=C(O)/C=C/c1ccc(/C=N/OC(c2ccc(OCc3ccc4ccccc4n3)cc2)C2CCCCC2)cc1 (stereo not given) | 0 | inhibition [1]: 48%
